Assay results reported in article PMC7323870 (Bioorganic & medicinal chemistry letters, 2010).

These compounds were tested against HIV IN (Human immunodeficiency virus type 1 group M subtype B, UniProt P04585) (assay: HIV IN 3′ processing).
Assay type: biochemical
`CNC(=O)c1nc(C)n(Cc2ccc(F)cc2)c(=O)c1O` [compound 6] gave an IC50 greater than 333 µM.
`CNC(=O)c1nc(Cc2ccc(F)cc2)[nH]c(=O)c1O` [compound 7] was tested, and the IC50 was greater than 333 µM.
With `COCCNC(=O)c1nc(Cc2ccc(F)cc2)[nH]c(=O)c1O` [compound 8] the IC50 was greater than 333 µM.
With `CN(C)CCCNC(=O)c1nc(Cc2ccc(F)cc2)[nH]c(=O)c1O` [compound 9] the IC50 was greater than 333 µM.
`O=C(O)c1nc(Cc2ccc(F)cc2)[nH]c(=O)c1O` [compound 10] was tested, and the IC50 was greater than 333 µM.
Compound `CNC(=O)c1nc(Cc2ccc(F)cc2)n(C)c(=O)c1O` [compound 11] has an IC50 greater than 333 µM.
